The record followed here is patent US9345677B2, “Compositions, methods and kits relating to HER-2 cleavage” (Incyte Corporation, priority 2003, dated 2016).

What is called IC50 is the concentration that gives 50% inhibition.

Test [1] has as its system circulating Her-2 ECD. The test can be described thus: Plasma Her-2 ECD ELISA in BT-474-SC1 xenograft mice. In kind it is in vivo. Here is the method:
For the BT-474-SC1 tumor model (see Results below), slow-release estrogen pellets (Innovative Research of America) were inserted subcutaneously (s.c.) into the flank of each mouse 24 hours prior to tumor cell inoculation. Balb/C nude and SCID-bg mice were obtained from Charles River Laboratories. Cells were harvested from their tissue culture plates, counted, centrifuged, and resuspended in serum free growth media and BD Matrigel™ at a 1:1 ratio immediately prior to implantation. In either one or two locations, 1−2×10^7 viable BT-474-SC1 cells were injected s.c. into the upper flank of each mouse. For all models, tumors were measured on a weekly basis and their volumes calculated using the formula [volume=(length×width^2)÷2]. Once the mean tumor volume of the required number of mice reached the desired size (usually >150 mm^3), they were randomized into treatment groups usually containing between 6 and 12 mice. […] Tumor size and body weights (a measure of animal health) were monitored weekly. […]
To measure levels of circulating Her-2 ECD in mice, plasmas were isolated from the blood samples described above and analyzed shortly after harvesting or stored frozen at −80° C. until analysis. To assess Her-2 ECD levels, plasma samples were diluted 1:5 and analyzed using a commercially available Her-2 ELISA kit per manufacturer's instructions (Oncogene Research, catalog #QIA10). […]
On the technique in general: In an ELISA, binding on a coated surface is turned into a signal by an enzyme label.

For test [2], the system named is BT-474-SC1 tumor xenografts. The test can be described thus: Tumor volume in BT-474-SC1 xenograft model. The format is in vivo, mice. Here is the method: For the BT-474-SC1 tumor model (see Results below), slow-release estrogen pellets (Innovative Research of America) were inserted subcutaneously (s.c.) into the flank of each mouse 24 hours prior to tumor cell inoculation. Balb/C nude and SCID-bg mice were obtained from Charles River Laboratories. Cells were harvested from their tissue culture plates, counted, centrifuged, and resuspended in serum free growth media and BD Matrigel™ at a 1:1 ratio immediately prior to implantation. In either one or two locations, 1−2×10^7 viable BT-474-SC1 cells were injected s.c. into the upper flank of each mouse. For all models, tumors were measured on a weekly basis and their volumes calculated using the formula [volume=(length×width^2)÷2]. Once the mean tumor volume of the required number of mice reached the desired size (usually >150 mm^3), they were randomized into treatment groups usually containing between 6 and 12 mice. Animals were then treated with compound or vehicle (10% DMAC, 30% propylene glycol) by mini-osmotic pump (Alzet, Cupertino, Calif.) implanted i.p. or s.c. for 7 to 28 days to achieve the desired compound exposure—controlled by altering the pump flow rate and/or the concentration of compound inside the pumps. Tumor size and body weights (a measure of animal health) were monitored weekly. Blood samples were also drawn (retro-orbital) while the osmotic pumps were functional and plasma was separated by centrifugation and stored at −80° C. for later pharmacokinetic and/or ELISA analysis, to determine the levels of circulating Her-2 ECD (described above). Note that in experiments designed to evaluate the effects of compound treatment on levels circulating Her-2 ECD, blood samples were drawn on the day osmostic pumps were implanted (day 0) and then again six days later (day 6).

For test [3], the system named is Her-2 sheddase. Put plainly: Her-2 ECD ELISA of BT474 culture supernatants (Her-2 sheddase inhibition). In kind it is cell-based, human. Here is the method:
(§1) BT474 cells were seeded in 100 μL of RPMI medium containing 10% FCS+10 μg/ml insulin in 96 well plates at 2×10^4 cells/well. The cells were incubated overnight at 37° C. The following morning, the media was removed and 100 μL of fresh media with or without compound was added back. The cells were incubated for about 72 hours at 37° C. After about 72 hours, the supernatants were removed. The samples were diluted 1:10 and analyzed using a commercially available Her-2 ELISA kit per manufacturer's instructions (Oncogene Research, catalog #QIA 10).
These inhibitors were added, at varying concentrations, to cultures of BT474 cells, a Her-2 overexpressing breast cancer cell line known to enzymatically process cell surface Her-2 (p185) and release the extracellular domain (ECD) into the culture supernatant, i.e., shedding of ECD. After 72 hours, cell culture supernatants were harvested and assayed for Her-2 ECD content using an ELISA assay.

Test [4] has as its system Her-2 cleavage in BT-474 cells. The test can be described thus: Western blot of Her-2 ECD (105 kDa) in culture supernatants. In kind it is cell-based, human. On the technique in general: A western blot detects proteins with antibodies after separation by electrophoresis.
Test [5] has as its system Her-2 cleavage in SK-BR3 cells. The test is described as above. In kind it is cell-based, human. To be noted: varying concentrations.
Test [6] deals with Her-2 cleavage in a primary breast tumor cell line that over expresses Her-2. The test can be described thus: Shed Her-2 ECD in primary breast tumor cell culture. In kind it is cell-based, human. To be noted: primary breast tumor cell line over expressing Her-2. The procedure: Tumor specimens were obtained by Oncotech (Tustin, Calif.) according to their IRB approved protocol using standard procedures known in the art. Cell cultures were maintained in tissue culture flasks. Cells intended for experimental treatment were harvested in log phase with EDTA and were plated at a density of 1×10^5 cells/well in 24-well polystyrene plates in 0.5 ml RPMI with 10% FCS. Experiments to determine the effects of MPIs on shed Her-2 receptor were performed as described below for BT-474 cells.
as §1

In test [7] the test system is AKT and ERK phosphorylation in BT474 cells. The test can be described thus: Western blot of phospho-ERK and phospho-AKT. In kind it is cell-based, human. The procedure: In experiments to determine the effects of MPI treatment on cell signaling, BT474 cells were plated at 1×10^5 cells/mL in 2 mL of media (RPMI+10% FCS+10 μg/mL insulin) in 12-well plates. […] After 5 days, the cells were harvested, lysed in 200 μL ice-cold lysis buffer containing 10 mM Tris, pH 7.2, 150 mM NaCl, 1% Triton X-100, 1% deoxycholic acid, 0.1% SDS, 50 μg/mL leupeptin, 50 μg/mL aprotinin, 1 mM sodium vanadate, 50 mM sodium fluoride, 1 mM PMSF. After 10 minutes on ice, the samples were microfuged at 13,000 rpm for 10 minutes at 4° C. and the supernatants collected. For analysis, 15 μL of 2× Laemmli sample buffer (BioRad, cat#161-0737) was added to 15 μL of extract, samples boiled for 5 minutes and loaded onto 12-well 12% Tris-Glycine gels (Novex, cat# EC60052). Gels were run in 1× Tris-Glycine-SDS buffer (Gibco BRL) using Novex minigel apparatus for approximately 1.5 hours. Following electrophoresis, proteins were transferred onto PVDF membrane (NEN, cat#NEF1000) in 1× Tris-Glycine buffer (Biorad, cat#161-0734) containing 20% MeOH for 2-3 hours using BioRad miniblot transfer system. After transfer, membranes were blocked in PBS+5% milk+0.1% Tween-20 for 1 h at RT. […]
Phosphorylation of AKT and the MAP kinase ERK were monitored by western blot analysis using phospho-specific antibodies.

For test [8], the system named is AKT and ERK phosphorylation in MCF7 cells. Put plainly: Western blot of phospho-ERK and phospho-AKT. To be noted: Her-2 non-overexpressing MCF7 cells. In kind it is cell-based, human.

Turning to `COC(=O)N1CC2(CC2)C[C@H](C(=O)NO)[C@H]1C(=O)N1CCN(c2ccccc2)CC1` [Compound 2, methyl (6S,7S)-7-[(hydroxyamino)carbonyl]-6-[(4-phenylpiperazin-1-yl)carbonyl]-5-azaspiro[2.5]octane-5-carboxylate], in test [1] (BT-474-SC1 tumor bearing mice, osmotic pump, p<0.0001), the “level of circulating ECD on day 6 compared to vehicle” value is given as “significantly lower”. Also, the “magnitude of change in ECD” value in test [1] (day 6) is 56%. For the same molecule, the “tumor size on day 6 compared to vehicle” value in test [2] (BT474-SC1 xenograft, p=0.0001) is recorded as “significantly smaller”. In addition, in test [2] (day 6), the “magnitude of change in tumor volume” value was found to be 27% and the “partial remission (greater than a 25% reduction in tumor volume)” value is “multiple tumors demonstrated a partial remission”.
Take `O=C(NO)[C@H]1CC2(CC2)CN[C@@H]1C(=O)N1CC=C(c2ccccc2)CC1` [Compound 3, (6S,7S)-6-{[4-phenyl-3,6-dihydropyridin-1(2H)-yl]carbonyl}-N-hydroxy-5-azaspiro[2.5]octane-7-carboxamide]: in test [2] (BT474-SC1 model, vehicle tumors tripled in size), the “tumor growth over a 28-day period” value is on record as “complete suppression of tumor growth”.
Take `CC1(C)SCCN(S(=O)(=O)c2ccc(Oc3ccncc3)cc2)[C@H]1C(=O)NO` [Compound 7, Prinomastat, reference compound]: the IC50 in test [3] fell in the range of 20 to 100 nM.
Regarding `COc1ccc(S(=O)(=O)N2Cc3ccccc3C[C@@H]2C(=O)NO)cc1` [Compound 4, (3R)-N-hydroxy-2-((4-methoxyphenyl)sulfonyl)-1,2,3,4-tetrahydroisoquinoline-3-carboxamide], the “inhibition of Her-2 cleavage (ECD processing), ELISA” value in test [3] (BT-474 cells, 72 hours) was “inhibition of Her-2 cleavage”. For the same molecule, the “inhibition of Her-2 cleavage, Western blot” value in test [4] (MPI alone, varying concentrations) is reported as “inhibition of Her-2 cleavage”; in test [5] it was “inhibition of Her-2 cleavage”. In test [4] (combination with Herceptin), the “blocking Her-2 cleavage, MPI in combination with Herceptin” value is reported as “additive effect”. For the same molecule, in test [6], the “inhibition of Her-2 cleavage” value was “inhibition of Her-2 cleavage”. Also, the “phosphorylation of both AKT and ERK” value in test [7] (sheddase inhibitor in combination with 0.2 μg/ml Herceptin) was “detectable reduction in phosphorylation”. In addition, the “AKT or ERK phosphorylation, single agent” value in test [7] (sheddase inhibitor less than 5 μM alone or 0.2 μg/ml Herceptin alone) is “did not demonstrate a detectable effect”. The “AKT and MAP kinase pathways” value in test [8] is “not impacted”.
